Laboratory results: patent US7576094B2, “Spiro derivatives as lipoxygenase inhibitors” (Eli Lilly and Company, priority 2004, dated 2009)

Columns and labels:
[1] = tested on: release of the leukotriene LTB4 from a neutrophil cell line (MPRO cell line); assay: LTB4-Cell Assay; format: cell-based; settings: Mus musculus, 1 h, read-out: inhibition of LTB4 with an EC50
Source text: • This procedure was used for measuring the release of the leukotriene LTB4 from a neutrophil cell line using a competitive ELISA technique. Materials and Equipments Materials for Cell Preparation and Experiment • MPRO cell line (ATCC, Catalog # CRL-11422) • Calcium ionophore (A23187) (Sigma, Catalog # C7522) • Nordihydroguaiaretic acid (NDGA) (BioMol ,Catalog # EI101-0001) • Retinoic Acid (all-trans) (ATRA) (Sigma, Catalog # 95152) • Sterile, tissue-culture treated 96-well plates (Corning, Catalog # 3614) Materials for LTB4 ELISA • Precoated (Mouse Anti-Rabbit IgG) EIA 96 Well Strip Plates (Cayman, Catalog # 400004) • Leukotriene B4 AChE Tracer (Cayman Catalog # 420110) • Leukotriene B4 EIA Antiserum (Cayman Catalog # 420112) • Ellman's Reagent (Cayman Catalog # 400050) • EIA Buffer Concentrate (10×) (Cayman Catalog # 400060) • Wash Buffer Concentrate (400×) (Cayman Catalog # 400062) • Plastic plate covers (Cayman Catalog # 400012) Procedure
A mouse promyelocytic cell line (MPRO) was used in this assay. These cells are committed immature neutrophils that can be differentiated into mature neutrophils by treatment with 10 μM all-trans retinoic acid for 72 hours.
Following 72 hours of differentiation, cells were stimulated with 1 μM of a calcium ionophore (A23187) in the presence or absence of test compound or vehicle for 1 hour at 37° C. After this time, supernatant was removed from the cells and the LTB4 levels were determined following manufacturer's instructions, using a Leukotriene B4 EIA kit from Cayman (Cat # 5201 11). The negative controls were media samples from differentiated but un-stimulated cells. The compounds were screened at 5 concentrations in quadruplicate starting at 10 μM.

[2] = tested on: LTB4 production in human whole blood; assay: Inhibition of LTB4 Production in Blood; format: cell-based; settings: 1 h, 20 μM A23187, 60 minutes at 37° C., LTB4 in plasma by ELISA, read-out: protection against LTB4 at an EC50
Method: • Human whole blood (Na citrate) (Stanford Blood Center) • A23187, (Sigma, Cat# C-7522) • Leukotriene B4 EIA reagents (Cayman Chemical, Cat # 520111) • BWA4C (Sigma, Cat # B7559) Procedure Preparation of A23187:
A23187 was prepared as a 10 mM stock solution in DMSO (aliquots can be stored at −20° C.). On the day of the assay the stock solution was diluted as follows: 70 μL 10 mM stock added to 1.6 mL plasma to give a working concentration of 0.42 mM.
From a 30 mM stock solution in DMSO, test articles were diluted to a working concentration of 600 μM in PBS (i.e. 10 μL stock solution+490 μL PBS). This is the highest concentration (gives a final testing concentration of 30 μM). From this 600 μM solution test articles were serially diluted 1:3 in PBS to give a dose-response curve. 10 μL of each concentration of test article was then added to 4 wells of a 96-well plate (i.e. testing in quadruplicate). A positive control compound, BWA4C was used in every assay.
Human whole blood was added to the plates containing compounds (190 μL per well) and mixed well. The blood was incubated with compound at 37° C. for 15 minutes. Following this incubation, 10 μL of 0.42 mM A23187 was added to each well except the negative control wells to give a final calcium ionophore concentration of 20 μM. The plates were then incubated at 37° C. for 60 minutes. After the incubation period, plates were centrifuged for 15 min at 2000 g at 4° C. in sealed microplate buckets. Plasma was then removed for quantitation of LTB4 levels by ELISA.
LTB4 levels in the plasma were determined using a commercially available ELISA kit from Cayman Chemicals. The ELISA was run according to the manufacturer's instructions. The LTB4 levels in the vehicle control sample were then compared to those in which the test article had been added. From this a percent inhibition of LTB4 production by each concentration of test article was calculated and the IC50 was determined.

[3] = target: T1, human recombinant 5-Lipoxygenase (Homo sapiens, UniProt P09917); assay: 5-Lipoxygenase Enzyme Assay; format: biochemical; settings: 70 μM arachidonic acid, 10 minute incubation at room temperature, FOX reagent, absorbance at 620 nm; read-out: inhibition of 5-Lipoxygenase with an IC50
T1 sequence (P09917 1-674): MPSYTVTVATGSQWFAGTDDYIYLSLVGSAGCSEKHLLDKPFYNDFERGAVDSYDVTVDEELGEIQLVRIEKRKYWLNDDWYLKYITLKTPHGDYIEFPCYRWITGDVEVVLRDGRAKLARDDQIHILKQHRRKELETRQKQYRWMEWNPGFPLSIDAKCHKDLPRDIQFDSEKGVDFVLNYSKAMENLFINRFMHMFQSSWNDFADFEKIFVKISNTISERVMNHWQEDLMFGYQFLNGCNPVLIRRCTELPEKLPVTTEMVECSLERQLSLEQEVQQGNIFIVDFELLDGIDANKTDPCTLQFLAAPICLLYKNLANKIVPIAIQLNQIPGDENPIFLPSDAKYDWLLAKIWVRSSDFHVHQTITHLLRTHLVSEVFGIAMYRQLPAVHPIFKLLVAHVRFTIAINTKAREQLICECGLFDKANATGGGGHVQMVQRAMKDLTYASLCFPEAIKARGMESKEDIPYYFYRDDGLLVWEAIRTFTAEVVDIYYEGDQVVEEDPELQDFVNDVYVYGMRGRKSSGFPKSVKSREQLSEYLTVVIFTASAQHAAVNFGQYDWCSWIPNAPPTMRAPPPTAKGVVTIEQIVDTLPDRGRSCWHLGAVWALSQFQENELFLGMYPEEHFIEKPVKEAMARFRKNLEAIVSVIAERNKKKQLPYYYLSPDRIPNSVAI
Method in brief: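 Recombinant human 5-LOX in 50 mM Tris-HCl pH 7.4 was preincubated with compound, then 70 μM arachidonic acid was added for 10 min at room temperature. Hydroperoxide was read by FOX reagent (ferric xylenol orange, 1 h complex formation) as absorbance at 620 nm. Five concentrations in triplicate were tested, starting at 10 μM.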

Structure (SMILES): CONC1CC2(CCC2)Oc2cc(C)c(O)c(C)c21 (stereo in doubt) [(4R)-4-(methoxyamino)-5,7-dimethyl-3,4-dihydrospiro[chromene-2,1′-cyclobutan]-6-ol]
- EC50 [1]: < 5 µM
- EC50 [2]: < 10 µM
- IC50 [3]: < 0.3 µM

Structure (SMILES): CONC1CC2(CCC2)Oc2cc(C)c(O)c(C)c21 (stereo in doubt) [(4S)-4-(methoxyamino)-5,7-dimethyl-3,4-dihydrospiro[chromene-2,1′-cyclobutan]-6-ol]
- EC50 [1]: < 5 µM
- EC50 [2]: < 10 µM
- IC50 [3]: < 0.3 µM

Structure (SMILES): CC1=Cc2c(C)c(O)c(C)c(C)c2OC12CCC2 [3,5,7,8-tetramethylspiro[chromene-2,1′-cyclobutan]-6-ol]
- EC50 [1]: < 5 µM
- EC50 [2]: < 10 µM

Structure (SMILES): Cc1c(C)c2c(c(C)c1O)C=C(C(C)O)C1(CCC1)O2 (stereo not drawn) [3-(1-hydroxyethyl)-5,7,8-trimethylspiro[chromene-2,1′-cyclobutan]-6-ol]
- EC50 [1]: < 5 µM
- EC50 [2]: < 10 µM

Structure (SMILES): Cc1c(C)c2c(c(C)c1O)CC(CO)C1(CCC1)O2 (stereo not drawn) [3-(hydroxymethyl)-5,7,8-trimethyl-3,4-dihydrospiro[chromene-2,1′-cyclobutan]-6-ol]
- EC50 [1]: < 5 µM
- EC50 [2]: < 10 µM

Structure (SMILES): Cc1c(C)c2c(c(C)c1O)C=C(CO)C1(CCC1)O2 [3-(hydroxymethyl)-5,7,8-trimethylspiro[chromene-2,1′-cyclobutan]-6-ol]
- EC50 [1]: < 5 µM
- EC50 [2]: < 10 µM
- IC50 [3]: < 0.3 µM

Structure (SMILES): COCC1=Cc2c(C)c(O)c(C)c(C)c2OC12CCC2 [3-(methoxymethyl)-5,7,8-trimethylspiro[chromene-2,1′-cyclobutan]-6-ol]
- EC50 [1]: < 5 µM
- EC50 [2]: < 10 µM
- IC50 [3]: < 0.3 µM

Structure (SMILES): CCONCC1Cc2c(cc(C)c(O)c2C)OC12CCC2 (stereo not drawn) [3-[(ethoxyamino)methyl]-5,7-dimethyl-3,4-dihydrospiro-[chromene-2,1′-cyclobutan]-6-ol]
- EC50 [1]: < 5 µM
- EC50 [2]: < 10 µM

Structure (SMILES): CONCC1=Cc2c(cc(C)c(O)c2C)OC12CCC2 [3-[(methoxyamino)methyl]-5,7-dimethylspiro[chromene-2,1′-cyclobutan]-6-ol]
- EC50 [1]: < 5 µM
- EC50 [2]: < 10 µM

Structure (SMILES): COC1Cc2c(C)c(O)c(C)c(C)c2OC12CCC2 (stereo not drawn) [3-methoxy-5,7,8-trimethyl-3,4-dihydrospiro[chromene-2,1′-cyclobutan]-6-ol]
- EC50 [1]: < 5 µM
- EC50 [2]: < 10 µM

Structure (SMILES): CCONC1CC2(CCC2)Oc2c(C)c(C)c(O)c(C)c21 (stereo not drawn) [4-(ethoxyamino)-5,7,8-trimethyl-3,4-dihydrospiro[chromene-2,1′-cyclobutan]-6-ol]
- EC50 [1]: < 5 µM
- EC50 [2]: < 10 µM
- IC50 [3]: < 0.3 µM

Structure (SMILES): Cc1c(C)c2c(c(C)c1O)C(NO)CC1(CCC1)O2 (stereo not drawn) [4-(hydroxyamino)-5,7,8-trimethyl-3,4-dihydrospiro[chromene-2,1′-cyclobutan]-6-ol]
- EC50 [1]: < 5 µM
- EC50 [2]: < 10 µM
- IC50 [3]: < 0.3 µM

Structure (SMILES): CCc1cc2c(c(CC)c1O)C(NOC)CC1(CCC1)O2 (stereo not drawn) [4-(methoxyamino)-5,7-diethyl-3,4-dihydrospiro[chromene-2,1′-cyclobutan]-6-ol]
- EC50 [1]: < 5 µM
- EC50 [2]: < 10 µM
- IC50 [3]: < 0.3 µM

Structure (SMILES): COC1c2c(C)c(O)c(C)c(C)c2OC2(CCC2)C1C (stereo not drawn) [4-methoxy-3,5,7,8-tetramethyl-3,4-dihydrospiro[chromene-2,1′-cyclobutan]-6-ol]
- EC50 [1]: < 5 µM
- EC50 [2]: < 10 µM

Structure (SMILES): Cc1c(C)c2c(c(C)c1O)CC(O)C1(CCC1)O2 (stereo not drawn) [5,7,8-trimethyl-3,4-dihydrospiro[chromene-2,1′-cyclobutane]-3,6-diol]
- EC50 [1]: < 5 µM
- EC50 [2]: < 10 µM

Structure (SMILES): CCc1cc2c(c(CC)c1O)CC(CO)C1(CCC1)O2 (stereo not drawn) [5,7-diethyl-3-(hydroxymethyl)spiro[chroman-2,1′-cyclobutan]-6-ol]
- EC50 [1]: < 5 µM
- EC50 [2]: < 10 µM

Structure (SMILES): C=Cc1c(C)c(O)c(C)c2c1OC1(CCC1)CC2 [5,7-dimethyl-8-vinyl-3,4-dihydrospiro[chromene-2,1′-cyclobutan]-6-ol]
- EC50 [1]: < 5 µM
- IC50 [3]: < 0.3 µM

Structure (SMILES): CCO/N=C1\CC2(CCC2)Oc2c(C)c(C)c(O)c(CC)c21 [5-ethyl-6-hydroxy-7,8-dimethylspiro[chromene-2,1′-cyclobutan]-4(3H)-one O-ethyloxime]
- EC50 [1]: < 5 µM
- IC50 [3]: < 0.3 µM

Structure (SMILES): CCc1c(O)c(C)c(C)c2c1/C(=N/OC)CC1(CCC1)O2 [5-ethyl-6-hydroxy-7,8-dimethylspiro[chromene-2,1′-cyclobutan]-4(3H)-one O-methyloxime]
- EC50 [1]: < 5 µM
- IC50 [3]: < 0.3 µM

Structure (SMILES): Cc1c(C)c2c(c(C)c1O)C(=NO)CC1(CCC1)O2 [6-hydroxy-5,7,8-trimethylspiro[chromene-2,1′-cyclobutan]-4(3H)-one oxime]
- EC50 [1]: < 5 µM
- EC50 [2]: < 10 µM

Structure (SMILES): Cc1c(C)c2c(c(C)c1O)C(=O)CC1(CCC1)S2 [6′-hydroxy-5′,7′,8′-trimethylspiro[cyclobutane-1,2′-thiochromen]-4′(3′H)-one]
- EC50 [1]: < 5 µM
- IC50 [3]: < 0.3 µM

Structure (SMILES): Cc1c2c(c(C)c(Cl)c1OC(=O)CN(C)C)OC1(CCC1)CC2 [7-chloro-5,8-dimethyl-3,4-dihydrospiro[chromene-2,1′-cyclobutan]-6-yl (dimethylamino)acetate]
- EC50 [1]: < 5 µM
- IC50 [3]: < 0.3 µM

Structure (SMILES): CCc1cc2c(c(CC)c1O)CC(COC(N)=O)C1(CCC1)O2 (stereo not drawn) [(5,7-diethyl-6-hydroxyspiro[chroman-2,1′-cyclobutane]-3-yl)methyl carbamate]
- EC50 [1]: < 5 µM
- EC50 [2]: < 10 µM

Structure (SMILES): Cc1cc2c(c(C)c1O)C(NS(=O)(=O)c1ccccc1)CC1(CCC1)O2 (stereo not drawn) [N-(6-hydroxy-5,7-dimethyl-3,4-dihydrospiro[chromene-2,1′-cyclobutan]-4-yl)benzenesulfonamide]
- EC50 [1]: < 5 µM
- IC50 [3]: < 0.3 µM

Structure (SMILES): COC(=O)C1CC(c2c(C)c(O)c(C)c3c2OC2(CCC2)CC3)=NO1 (stereo not drawn) [methyl 3-(6-hydroxy-5,7-dimethyl-3,4-dihydrospiro[chromene-2,1′-cyclobutan]-8-yl)-4,5-dihydroisoxazole-5-carboxylate]
- EC50 [1]: < 5 µM
- IC50 [3]: < 0.3 µM
